Source: patent US20250213603A1, “PHARMACEUTICAL COMPOSITION FOR TREATING CANCER” (SAGA UNIVERSITY, priority 2021, published 2025)
Entries after “also recorded” stand apart in the source; their conditions may differ.

Columns and labels:
[1] = system: leukemia cell lines (K562, BV173, Ba/F3 p190, Ba/F3 p210, MYL-R, K562-IMR, and KBM5-STI); test: Comparison of cytotoxic activity across leukemia cell lines (MTT assay); assay type: cell-based; conditions: Example 3
Protocol: The proliferation inhibitory action in leukemia cell lines was evaluated using a modified dimethyl-thiazole-diphenyl-tetrazolium (MTT) assay as follows.
The hepatocyte line and leukemia cell lines (K562, BV173, Ba/F3 p190, Ba/F3 p210, MYL-R, K562-IMR, and KBM5-STI) were used in this example. The FA-HP-β-CyD synthesized in Example 1 was used.
The cell viability was evaluated using the trypan blue dye exclusion method. Cell proliferation was evaluated using a Cell Counting Kit-8 (Dojindo, Japan), which is an MTT assay. 2×10^4 of each cell was seeded with 100 μL RPMI1640 medium (Sigma-Aldrich, USA) per well to a flatbottom 96-well plate (Greiner Labortechnik, Hamburg, Germany), and incubation for 72 hours was carried out with exposure to HP-β-CyD and FA-HP-β-CyD at different concentrations (0 mM (control: CT), 0.05 mM, 0.1 mM, 0.25 mM, 0.5 mM, and 1 mM).
According to Table 1, IC50 for FA-HP-β-CyD in the leukemia cell lines (K562, BV173, Ba/F3 p190, Ba/F3 p210, MYL-R, K562-IMR, and KBM5-STI) is shown to be about ⅕ to about 1/20 of that for HP-β-CyD. […] FA-HP-β-CyD is thus shown to have a stronger cytotoxic activity than HP-β-CyD.

A549 = test: Proliferation inhibitory action on low folate receptor-expressing cells (MTT assay); assay type: cell-based, human; conditions: A549, 2.5-10 mM, 72 hours (FIG. 3)
Protocol: The proliferation inhibitory action on A549, a low folate receptor-expressing cell, was evaluated as follows.
A human non-small cell lung cancer cell line (A549) was used in this example. The FA-HP-β-CyD synthesized in Example 1 was used.
For cell proliferation, 2×10^4 cells of the […] were seeded with 100 μL DMEM medium (Sigma-Aldrich, USA) per well to a flatbottom 96-well plate (Greiner Labortechnik, Hamburg, Germany), and incubation for 72 hours was carried out with exposure to HP-β-CyD and FA-HP-β-CyD at different concentrations (0 mM (control: CT), 2.5 mM, 5 mM, 7.5 mM, and 10 mM). Evaluation was then carried out using a dimethyl-thiazole-diphenyl-tetrazolium (MTT) assay (Nacalai Tesque, Japan).

BV173 = test: Cellular uptake of TRITC-labelled CyD, confocal microscopy; assay type: cell-based; conditions: confocal microscopy (FIG. 6)
Protocol: The cellular uptake of FA-HP-β-CyD was evaluated as follows.
A leukemia cell line (BV173) was used in this example. The FA-HP-β-CyD synthesized in Example 1 was used.
10 mg HP-β-CyD or FA-HP-β-CyD and 1 mg of TRITC were dissolved in 400 μL of dimethyl sulfoxide (DMSO) with stirring for 24 hours and the solution was then gradually poured into acetone. A precipitate was obtained and was washed with water. This was freeze-dried to prepare TRITC-HP-β-CyD and TRITC-FA-HP-β-CyD.
The cells were then cultured at a cell density of 4×10e5 per well on a 6-well plate and were incubated with […], TRITC-HP-β-CyD, FA-HP-β-CyD, or HP-βCyD at different concentrations. A Zeiss LSM880 confocal microscope was used to observe the cells. Imaris (Zeiss) fluorescent image analysis software was used for analysis.
The Control refers to incubation at the same time as the other exposure groups, but without exposure to an agent. Cell localization was stained by DAPI and the cell membrane was stained with PlasMen Bright Green, and the cellular uptake of TRITC-FA-HP-β-CyD was evaluated using confocal microscopy.

[2] = system: EGFP+Ba/F3 BCR-ABLWT cells; test: Survival extension in a BCR-ABL leukemia mouse model; assay type: in vivo, nude mice; conditions: 15 mM (249 mg/kg) FA-HP-β-CyD vs 150 mM (2086.5 mg/kg) HP-β-CyD, intraperitoneally twice a day for 20 days (FIG. 10)
Protocol: The effect due to FA-HP-β-CyD on the extension of survival in a BCR-ABL leukemia mouse model was evaluated as follows.
(§1) The FA-HP-β-CyD synthesized in Example 1 was used in this example.
EGFP+Ba/F3 BCR-ABLWT cells (1×10^6 cells) were transplanted into 6-week-old nude mice. Three days after transplantation, 200 μL vehicle (n=10), 150 mM (2086.5 mg/kg) HP-β-CyD (n=10), 15 mM (249 mg/kg) FA-HP-β-CyD (n=10), or […] (200 mg/kg) imatinib (n=10) was injected intraperitoneally twice a day for 20 days. The survival time was monitored daily. The survival data were analyzed using a log-rank nonparametric test and are reported as Kaplan-Meier survival curves.
(§2) Significant difference was determined as follows. That is, the data were analyzed using a two-sided Student's t-test without a comparison table. A value of P<0.05 was considered to indicate a significant difference.

[3] = system: BV173 cells (leukemia cells); test: Ventricular invasion mouse model (leukemic invasion of the central nervous system); assay type: in vivo, BRJ mice
Protocol: Here, the effect of HP-β-CyD and FA-HP-β-CyD on leukemic central nervous system invasion was test by constructing a mouse model.
BRJ mice (female) were anesthetized (intraperitoneal administration (IP) of 100 μL of a triple anesthetic of medetomidine hydrochloride (0.75 mg/kg), mitazolam (4 mg/kg), and butorphanol tartrate (5 mg/kg)), and intrathecal transplantation was carried out, through the right coronal suture at a point 1 mm to the right of the center line defined by the sagittal suture, with a polyethylene stop tube-equipped microsyringe designed to inject BV173 cells (leukemia cells) precisely to a depth of 3 mm using a Hamilton syringe LT type needle tip style pst-3 and 25 gauge.
as §1
The doses were set at 30 mg/kg for HP-β-CyD and 3 mg/kg for FA-HP-β-CyD by referring to the dose of HP-β-CyD for a mouse model of the hereditary lipid storage disease Niemann-Pick disease type C (NPC) (Int. J. Mol. Sci. 2021, 22, 452. https://doi.org/10.3390/ijms22010452).
as §2

folic acid-appended hydroxypropyl-β-cyclodextrin [FA-HP-β-CyD]
amount giving the equivalent anti-leukemia action relative to un-appended HP-β-CyD [1]: approximately one-tenth the amount
cytotoxic / antitumor activity on A549 low folate receptor-expressing cells (A549): does not exhibit an antitumor activity
cellular uptake (BV173): incorporated in large amounts into the cell
survival time extension [2]: same survival time extension at one-tenth the amount of HP-β-CyD; also recorded: significant extension of the survival time
survival in two-time administration model compared with one-time administration model ([3]; FIG. 14 compared with FIG. 13, HP-β-CyD 30 mg/kg, FA-HP-β-CyD 3 mg/kg): survival was extended by one day
survival in comparison to the vehicle group and HP-β-CyD group ([3]; administered two times, first and second week after transplantation, FA-HP-β-CyD 3 mg/kg (FIG. 14)): extension of survival was confirmed
P versus the vehicle group (survival) ([3]; administered two times, first and second week, HP-β-CyD 30 mg/kg, FA-HP-β-CyD 3 mg/kg (FIG. 14)): 0.0472
survival in comparison to the vehicle group and HP-β-CyD group ([3]; single administration in the second week after ventricular transplantation, FA-HP-β-CyD 3 mg/kg (FIG. 13)): extension of survival was confirmed
P versus the vehicle group (survival) ([3]; single administration in the second week, HP-β-CyD 30 mg/kg, FA-HP-β-CyD 3 mg/kg (FIG. 13)): 0.0111
